In patent US9273063B2, “Method for preparing a rifaximin product” (Salix Pharmaceuticals, Inc., priority 2007, dated 2016):

Key:
[1] = Dissolution in ethanol, amorphous vs crystalline form; format: physicochemical; conditions: without stirring
Procedure: The dissolution profile of the substance in amorphous form was also determined, and compared with that of the substance in crystalline form.

[2] = Water solubility in dissolution tester (distilled water, 37° C., 100 rpm, spectrophotometric analysis); format: physicochemical; conditions: 37° C.±0.5° C.
Procedure: Moreover, with regard to water solubility, after conditioning a dissolution tester (Pharma Test Type PTW S III s/n 5390) using distilled water at a temperature of 37° C.±0.5° C. at a speed of 100 rpm, four dissolutions were carried out, in each of which the first three vessels of the dissolution tester were used for the substance in crystalline form and the last three for the substance in amorphous form.
10 ml of the solute were withdrawn from each vessel after 15 minutes of stirring; the withdrawn samples were filtered with 0.45 μm filters and subjected to spectophotometric analysis, repeating the operation after 30 and 60 minutes.

Row | SMILES | dissolution behaviour in ethanol [1] | dissolved percentage compared with that of the substance in crystalline form [2] | concentration of dissolved substance relative to that of the substance in amorphous form ([2]; after one hour of dissolution)
1 | CO[C@H]1/C=C/O[C@@]2(C)Oc3c(C)c(O)c4c(O)c(c5c(nc6cc(C)ccn65)c4c3C2=O)NC(=O)/C(C)=C\C=C\[C@H](C)[C@H](O)[C@@H](C)[C@@H](O)[C@@H](C)[C@H](OC(C)=O)[C@@H]1C [amorphous form, Rifaximin] | easily dissolves in ethanol even without stirring | one order of magnitude greater | –
2 | CO[C@H]1/C=C/O[C@@]2(C)Oc3c(C)c(O)c4c(O)c(c5c(nc6cc(C)ccn65)c4c3C2=O)NC(=O)/C(C)=C\C=C\[C@H](C)[C@H](O)[C@@H](C)[C@@H](O)[C@@H](C)[C@H](OC(C)=O)[C@@H]1C [crystalline form, Rifaximin] | less wettable | – | about 7%
